Columns and labels:
Assay in all cases: Test E pre-/postemergence greenhouse test, plant response rating 0-100
Type in all cases: in vivo
[1] = system: arrowleaf sida (Sida rhombifolia); details: for Arrowleaf Sida plant response rating: Preemergence
Outline: (§1)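 Preemergence application to planted silt loam and postemergence application to 2–18 cm seedlings are run simultaneously. Evaluation is visual against controls after 14 to 21 days, scored from 0 (no effect) to 100 (complete control).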

[2] = system: palmer pigweed (Amaranthus palmeri); details: scale 0 to 100; for Pigweed, Palmer plant response rating: Preemergence
Outline: as §1

[3] = system: hairy beggarticks (Bidens pilosa); details: scale 0 to 100; for Beggarticks plant response rating: Preemergence
Outline: as §1

[4] = system: sandbur (southern sandbur, Cenchrus echinatus); details: scale 0 to 100; for Sandbur plant response rating: Preemergence
Outline: as §1

[5] = system: corn (Zea mays); details: scale 0 to 100; for Corn plant response rating: Preemergence
Outline: as §1

[6] = system: barnyardgrass (Echinochloa crus-galli); details: scale 0 to 100; for Barnyardgrass plant response rating: Preemergence
Outline: as §1

[7] = system: soybean (Glycine max); details: scale 0 to 100; for Soybean plant response rating: Preemergence
Outline: as §1

[8] = system: waterhemp (common waterhemp, Amaranthus rudis); details: scale 0 to 100; for Waterhemp plant response rating: Preemergence
Outline: as §1

[9] = system: dayflower (Virginia (VA) dayflower, Commelina virginica); details: scale 0 to 100; for Dayflower, VA plant response rating: Preemergence
Outline: as §1

[10] = system: Brazilian crabgrass (Digitaria horizontalis); details: scale 0 to 100; for Crabgrass, Brazil plant response rating: Preemergence
Outline: as §1

[11] = system: fall panicum (Panicum dichotomiflorum); details: scale 0 to 100; for Panicum, Fall plant response rating: Preemergence
Outline: as §1

[12] = system: field bindweed (Convolvulus arvensis); details: scale 0 to 100; for Field Bindweed plant response rating: Preemergence
Outline: as §1

With `C#CCn1cc(C(=O)c2ccccc2)c(-c2cc(Cl)cc(Cl)c2)n1` [Compound 39, [3-(3,5-dichlorophenyl)-1-(2-propyn-1-yl)-1H-pyrazol-4-yl]phenylmethanone] the “Arrowleaf Sida plant response rating” value ([1]; 62 g ai/ha, scale 0 to 100) was 0, the “Arrowleaf Sida plant response rating” value ([1]; 125 g ai/ha, scale 0 to 100) was 90 and the “Arrowleaf Sida plant response rating” value ([1]; 250 g ai/ha, scale 0 to 100) was 95. For the same molecule, the “Arrowleaf Sida plant response rating” value ([1]; 500 g ai/ha, scale 0 to 100) was 95, the pest or weed control at 31 g/ha ([1]; Sida rhombifolia, post-emergence, Postemergence, 31 g ai/ha, scale 0 to 100) was 75% and the pest or weed control at 62 g/ha ([1]; Sida rhombifolia, post-emergence, Postemergence, 62 g ai/ha, scale 0 to 100) was 80%. The pest or weed control at 125 g/ha ([1]; Sida rhombifolia, post-emergence, Postemergence, 125 g ai/ha, scale 0 to 100) was 85%, the pest or weed control at 250 g/ha ([1]; Sida rhombifolia, post-emergence, Postemergence, 250 g ai/ha, scale 0 to 100) was 90% and the pest or weed control at 500 g/ha ([1]; Sida rhombifolia, post-emergence, Postemergence, 500 g ai/ha, scale 0 to 100 (0 no effect, 100 complete control)) was 90%. For the same molecule, the pest or weed control at 31 g/ha ([2]; Amaranthus palmeri, post-emergence, Postemergence, 31 g ai/ha) was 70%, the pest or weed control at 62 g/ha ([2]; Amaranthus palmeri, post-emergence, Postemergence, 62 g ai/ha) was 80% and the pest or weed control at 125 g/ha ([2]; Amaranthus palmeri, post-emergence, Postemergence, 125 g ai/ha) was 80%. The pest or weed control at 250 g/ha ([2]; Amaranthus palmeri, post-emergence, Postemergence, 250 g ai/ha) was 85%, the pest or weed control at 500 g/ha ([2]; Amaranthus palmeri, post-emergence, Postemergence, 500 g ai/ha) was 98% and the “Pigweed, Palmer plant response rating” value ([2]; 62 g ai/ha) was 20. The “Pigweed, Palmer plant response rating” value ([2]; 125 g ai/ha) was 50, the “Pigweed, Palmer plant response rating” value ([2]; 250 g ai/ha) was 90 and the “Pigweed, Palmer plant response rating” value ([2]; 500 g ai/ha) was 85. It also gave a pest or weed control at 31 g/ha ([3]; Bidens pilosa, post-emergence, Postemergence, 31 g ai/ha) of 80%, a pest or weed control at 62 g/ha ([3]; Bidens pilosa, post-emergence, Postemergence, 62 g ai/ha) of 85% and a pest or weed control at 125 g/ha ([3]; Bidens pilosa, post-emergence, Postemergence, 125 g ai/ha) of 90%. The pest or weed control at 250 g/ha ([3]; Bidens pilosa, post-emergence, Postemergence, 250 g ai/ha) was 95%, the pest or weed control at 500 g/ha ([3]; Bidens pilosa, post-emergence, Postemergence, 500 g ai/ha) was 95% and the “Beggarticks plant response rating” value ([3]; 62 g ai/ha) was 0. For the same molecule, the “Beggarticks plant response rating” value ([3]; 125 g ai/ha) was 0, the “Beggarticks plant response rating” value ([3]; 250 g ai/ha) was 0 and the “Beggarticks plant response rating” value ([3]; 500 g ai/ha) was 0. For the same molecule, the pest or weed control at 31 g/ha ([4]; Cenchrus echinatus, post-emergence, Postemergence, 31 g ai/ha) was 0%, the pest or weed control at 62 g/ha ([4]; Cenchrus echinatus, post-emergence, Postemergence, 62 g ai/ha) was 0% and the pest or weed control at 125 g/ha ([4]; Cenchrus echinatus, post-emergence, Postemergence, 125 g ai/ha) was 0%. For the same molecule, the pest or weed control at 250 g/ha ([4]; Cenchrus echinatus, post-emergence, Postemergence, 250 g ai/ha) was 0%, the pest or weed control at 500 g/ha ([4]; Cenchrus echinatus, post-emergence, Postemergence, 500 g ai/ha) was 0% and the “Sandbur plant response rating” value ([4]; 62 g ai/ha) was 0. The “Sandbur plant response rating” value ([4]; 125 g ai/ha) was 0, the “Sandbur plant response rating” value ([4]; 250 g ai/ha) was 0 and the “Sandbur plant response rating” value ([4]; 500 g ai/ha) was 0. The “Corn plant response rating” value ([5]; 62 g ai/ha) was 0, the “Corn plant response rating” value ([5]; 125 g ai/ha) was 0 and the “Corn plant response rating” value ([5]; 250 g ai/ha) was 0. For the same molecule, the “Corn plant response rating” value ([5]; 500 g ai/ha) was 0, the Corn plant response rating (crop injury, 0 = no effect, 100 = complete kill) at 31 g/ha ([5]; Zea mays, post-emergence, Postemergence, 31 g ai/ha) was 0% and the Corn plant response rating (crop injury, 0 = no effect, 100 = complete kill) at 62 g/ha ([5]; Zea mays, post-emergence, Postemergence, 62 g ai/ha) was 0%. It also gave a Corn plant response rating (crop injury, 0 = no effect, 100 = complete kill) at 125 g/ha ([5]; Zea mays, post-emergence, Postemergence, 125 g ai/ha) of 0%, a Corn plant response rating (crop injury, 0 = no effect, 100 = complete kill) at 250 g/ha ([5]; Zea mays, post-emergence, Postemergence, 250 g ai/ha) of 0% and a Corn plant response rating (crop injury, 0 = no effect, 100 = complete kill) at 500 g/ha ([5]; Zea mays, post-emergence, Postemergence, 500 g ai/ha) of 0%. The pest or weed control at 31 g/ha ([6]; Echinochloa crus-galli, post-emergence, Postemergence, 31 g ai/ha) was 0%, the pest or weed control at 62 g/ha ([6]; Echinochloa crus-galli, post-emergence, Postemergence, 62 g ai/ha) was 0% and the pest or weed control at 125 g/ha ([6]; Echinochloa crus-galli, post-emergence, Postemergence, 125 g ai/ha) was 0%. For the same molecule, the pest or weed control at 250 g/ha ([6]; Echinochloa crus-galli, post-emergence, Postemergence, 250 g ai/ha) was 0%, the pest or weed control at 500 g/ha ([6]; Echinochloa crus-galli, post-emergence, Postemergence, 500 g ai/ha) was 10% and the “Barnyardgrass plant response rating” value ([6]; 62 g ai/ha) was 0. For the same molecule, the “Barnyardgrass plant response rating” value ([6]; 125 g ai/ha) was 0, the “Barnyardgrass plant response rating” value ([6]; 250 g ai/ha) was 0 and the “Barnyardgrass plant response rating” value ([6]; 500 g ai/ha) was 0. The plant injury at 31 g/ha ([7]; Glycine max, post-emergence, Postemergence, 31 g ai/ha) was 0%, the plant injury at 62 g/ha ([7]; Glycine max, post-emergence, Postemergence, 62 g ai/ha) was 0% and the plant injury at 125 g/ha ([7]; Glycine max, post-emergence, Postemergence, 125 g ai/ha) was 0%. For the same molecule, the plant injury at 250 g/ha ([7]; Glycine max, post-emergence, Postemergence, 250 g ai/ha) was 10%, the plant injury at 500 g/ha ([7]; Glycine max, post-emergence, Postemergence, 500 g ai/ha) was 20% and the “Soybean plant response rating” value ([7]; 62 g ai/ha) was 0. The “Soybean plant response rating” value ([7]; 125 g ai/ha) was 0, the “Soybean plant response rating” value ([7]; 250 g ai/ha) was 0 and the “Soybean plant response rating” value ([7]; 500 g ai/ha) was 0. For the same molecule, the pest or weed control at 31 g/ha ([8]; Amaranthus tuberculatus, post-emergence, Postemergence, 31 g ai/ha) was 80%, the pest or weed control at 125 g/ha ([8]; Amaranthus tuberculatus, post-emergence, Postemergence, 125 g ai/ha) was 90% and the pest or weed control at 250 g/ha ([8]; Amaranthus tuberculatus, post-emergence, Postemergence, 250 g ai/ha) was 95%. The pest or weed control at 500 g/ha ([8]; Amaranthus tuberculatus, post-emergence, Postemergence, 500 g ai/ha) was 98%, the “Waterhemp plant response rating” value ([8]; 62 g ai/ha) was 85 and the “Waterhemp plant response rating” value ([8]; 125 g ai/ha) was 95. The “Waterhemp plant response rating” value ([8]; 250 g ai/ha) was 100, the “Waterhemp plant response rating” value ([8]; 500 g ai/ha) was 100 and the pest or weed control at 31 g/ha ([9]; Commelina virginica, post-emergence, Postemergence, 31 g ai/ha) was 0%. The pest or weed control at 62 g/ha ([9]; Commelina virginica, post-emergence, Postemergence, 62 g ai/ha) was 0%, the pest or weed control at 125 g/ha ([9]; Commelina virginica, post-emergence, Postemergence, 125 g ai/ha) was 0% and the pest or weed control at 250 g/ha ([9]; Commelina virginica, post-emergence, Postemergence, 250 g ai/ha) was 0%. The pest or weed control at 500 g/ha ([9]; Commelina virginica, post-emergence, Postemergence, 500 g ai/ha) was 0%, the “Dayflower, VA plant response rating” value ([9]; 62 g ai/ha) was 0 and the “Dayflower, VA plant response rating” value ([9]; 125 g ai/ha) was 0. For the same molecule, the “Dayflower, VA plant response rating” value ([9]; 250 g ai/ha) was 0, the “Dayflower, VA plant response rating” value ([9]; 500 g ai/ha) was 0 and the pest or weed control at 31 g/ha ([10]; Digitaria horizontalis, post-emergence, Postemergence, 31 g ai/ha, read-out: Plant response rating, Crabgrass, Brazil) was 0%. It also gave a pest or weed control at 62 g/ha ([10]; Digitaria horizontalis, post-emergence, Postemergence, 62 g ai/ha, read-out: Plant response rating, Crabgrass, Brazil) of 0%, a pest or weed control at 125 g/ha ([10]; Digitaria horizontalis, post-emergence, Postemergence, 125 g ai/ha, read-out: Plant response rating, Crabgrass, Brazil) of 0% and a pest or weed control at 250 g/ha ([10]; Digitaria horizontalis, post-emergence, Postemergence, 250 g ai/ha, read-out: Plant response rating, Crabgrass, Brazil) of 0%. For the same molecule, the pest or weed control at 500 g/ha ([10]; Digitaria horizontalis, post-emergence, Postemergence, 500 g ai/ha, read-out: Plant response rating, Crabgrass, Brazil) was 5%, the “Crabgrass, Brazil plant response rating” value ([10]; 62 g ai/ha) was 0 and the “Crabgrass, Brazil plant response rating” value ([10]; 125 g ai/ha) was 0. For the same molecule, the “Crabgrass, Brazil plant response rating” value ([10]; 250 g ai/ha) was 0, the “Crabgrass, Brazil plant response rating” value ([10]; 500 g ai/ha) was 0 and the pest or weed control at 31 g/ha ([11]; Panicum dichotomiflorum, post-emergence, Postemergence, 31 g ai/ha) was 0%. The pest or weed control at 62 g/ha ([11]; Panicum dichotomiflorum, post-emergence, Postemergence, 62 g ai/ha) was 0%, the pest or weed control at 125 g/ha ([11]; Panicum dichotomiflorum, post-emergence, Postemergence, 125 g ai/ha) was 0% and the pest or weed control at 250 g/ha ([11]; Panicum dichotomiflorum, post-emergence, Postemergence, 250 g ai/ha) was 0%. For the same molecule, the pest or weed control at 500 g/ha ([11]; Panicum dichotomiflorum, post-emergence, Postemergence, 500 g ai/ha) was 0%, the “Panicum, Fall plant response rating” value ([11]; 62 g ai/ha) was 0 and the “Panicum, Fall plant response rating” value ([11]; 250 g ai/ha) was 0. It also gave a pest or weed control at 31 g/ha ([12]; Convolvulus arvensis, post-emergence, Postemergence, 31 g ai/ha) of 0%, a pest or weed control at 62 g/ha ([12]; Convolvulus arvensis, post-emergence, Postemergence, 62 g ai/ha) of 0% and a pest or weed control at 125 g/ha ([12]; Convolvulus arvensis, post-emergence, Postemergence, 125 g ai/ha) of 0%. The pest or weed control at 250 g/ha ([12]; Convolvulus arvensis, post-emergence, Postemergence, 250 g ai/ha) was 10%, the pest or weed control at 500 g/ha ([12]; Convolvulus arvensis, post-emergence, Postemergence, 500 g ai/ha) was 10% and the “Field Bindweed plant response rating” value ([12]; 62 g ai/ha) was 0. For the same molecule, the “Field Bindweed plant response rating” value ([12]; 125 g ai/ha) was 0, the “Field Bindweed plant response rating” value ([12]; 250 g ai/ha) was 0 and the “Field Bindweed plant response rating” value ([12]; 500 g ai/ha) was 0.

Source: patent US10167262B2, “Herbicidal substituted 3-arylpyrazoles” (FMC CORPORATION, priority 2014, dated 2019)
